Data on three compounds can be found in US20220218627A1 (priority 2019, published 2022).

Data set [1] deals with Cluster headache patients. The conditions noted are these: human, in vivo.
For data set [2] the following is noted: in vivo; cited from earlier work.
The subject of data set [3] is pediatric procedural pain. The conditions noted are these: in vivo; cited from earlier work.
Another data set concerns acute traumatic pain. The conditions noted are these: in vivo; cited from earlier work.
Data set [4] concerns major depressive disorder. As to conditions: in vivo; cited from earlier work.
For data set [5], the system named is migraine or Cluster headache patients. As to conditions: in vivo, iv; cited from earlier work.

Structures are written as SMILES.

With `CNC1(c2ccccc2Cl)CCCCC1=O` (stereo not drawn) [ketamine, 2-(2-chlorophenyl)-2-(methylamino)cyclohexanone], in data set [1], the “Case 1: number of sprays after which patient reported feeling better” value is 2-3 sprays; the “Case 1: side effects (dysphoria, out-of-body)” value is on record as “no side effects”; the “Case 2: cluster headache episode frequency over about a year” value is on record as “beginning to get less frequent”; the “Case 3: long-term course of cluster headache episodes” value is “only had one short cluster headache episode in the last three to four years”. For the same compound, in data set [1], the “Cases 1-3: change from initial baseline on 0 to 10 Visual Analogue Scale (VAS)” value was “above 65%”; the “Cases 1-3: dysphoria or nausea” value is on record as “Increased dysphoria or nausea was not noted”; the “Cases 1-3: out-of-body experiences or hallucinations” value is “No out-off body experiences, or hallucinations were observed”. Also, in data set [1] (iv), the “Case 1: outcome of IV treatment on cluster headaches” value was “complete cessation of the cluster headaches in three days”, the “Case 2: change in cluster headache frequency” value is listed as “from 5 episodes per day to only one cluster headache in the next week” and the “Case 3: shortening of the duration of the cluster episode” value is reported as “greater than two-thirds”. In addition, in data set [2], the terminal plasma half-life is 2 to 3 h and the “time to peak plasma concentrations” value is 10 to 15 min. In addition, in data set [3], the onset of analgesia entry is on record as “rapid onset of analgesia” and the side effects entry is reported as “only slight sedation”. Besides, in the data set with acute traumatic pain, the “efficacy in pain treatment compared to morphine IV or IM” value is recorded as “equal efficient in pain treatment”, the “hallucinations or out-of-body experience” value was “No patients complained of hallucinations or out of-body experience”, the side effects result was “mainly dizziness” and the time to onset result was “approx. 15 min”. For the same compound, in data set [4], the “effect on depressive symptoms” value is given as “rapid improvement of the depressive symptoms” and the serious adverse effects entry is reported as “No serious adverse effects occurred”. In data set [5], the “patients complaining of spaciness, fearfulness, jitteriness or lack of personal control” value is given as “approximately 43%” and the “patients experiencing nausea at some point during treatment” value was 3.2%.

For the compound `CCCC(CCC)C(=O)O` [Depacon], the “Case 3: success in shutting the cluster episode down” value in data set [1] (iv) is listed as “only partial success”.

Take `CCN(CC)CC(=O)Nc1c(C)cccc1C` [lidocaine]: the “Case 3: success in shutting the cluster episode down” value in data set [1] (iv) is “only partial success”.
